Patent US4740233A, “Substituted 1,2,4-triazolo[1,5-a]-pyrimidine-2-sulfonamides and compositions and methods of controlling undesired vegetation and suppressing the nitrification of ammonium nitrogen in soil” (The Dow Chemical Company, priority 1986, dated 1988)

Tests used:
[1] = test system: rice; experiment: Postemergent control of plant species; assay type: in vivo, Oryza sativa; settings: Oryza sativa, post-emergence, 336 h, read-out: percent postemergent control
How it was run: (§1)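 Spray emulsion: acetone stock at twice final concentration plus equal volume water with 0.1% wetting agent, applied to separated greenhouse beds at 2-4 leaf stage. Assessed at ~two weeks; score reflects growth reduction compared with untreated plants.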

[2] = test system: wild oats; experiment: Preemergent control of plant species; assay type: in vivo; settings: Avena fatua, pre-emergence, 336 h; 0.25 lb/acre; read-out: percent preemergent control
How it was run: (§2)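 Test compositions were applied evenly to the surface of freshly seeded soil beds and kept under greenhouse conditions for two weeks. Percent control reflects growth reduction compared with water-treated beds of the same species.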

[3] = test system: barnyardgrass; experiment: Preemergent control of plant species; assay type: in vivo, Echinochloa crusgalli; settings: Echinochloa crus-galli, pre-emergence, 336 h; 0.25 lb/acre; read-out: percent preemergent control
How it was run: as §2

[4] = test system: rice; experiment: Preemergent control of plant species; assay type: in vivo, Oryza sativa; settings: Oryza sativa, pre-emergence, 336 h; 0.25 lb/acre; read-out: percent preemergent control
How it was run: as §2

[5] = test system: sugar beet; experiment: Postemergent control of plant species; assay type: in vivo, Beta saccharifera; settings: Beta vulgaris, post-emergence, 336 h, read-out: percent postemergent control
How it was run: as §1

[6] = test system: barnyardgrass; experiment: Postemergent control of plant species; assay type: in vivo, Echinochloa crusgalli; settings: Echinochloa crus-galli, post-emergence, 336 h, read-out: percent postemergent control
How it was run: as §1

[7] = test system: wheat; experiment: Preemergent control of plant species; assay type: in vivo, Triticum aestivum; settings: Triticum aestivum, pre-emergence, 336 h; 0.25 lb/acre; read-out: percent preemergent control
How it was run: as §2

[8] = test system: johnson grass; experiment: Postemergent control of plant species; assay type: in vivo, Sorghum halepense; settings: Sorghum halepense, post-emergence, 336 h, read-out: percent postemergent control
How it was run: as §1

[9] = test system: yellow foxtail; experiment: Preemergent control of plant species; assay type: in vivo, Setaria lutescens; settings: Setaria, pre-emergence, 336 h; 0.25 lb/acre; read-out: percent preemergent control
How it was run: as §2

[10] = test system: cotton; experiment: Preemergent control of plant species; assay type: in vivo, Gossypium spp.; settings: Gossypium hirsutum, pre-emergence, 336 h; 0.25 lb/acre; read-out: percent preemergent control
How it was run: as §2

[11] = test system: jimsonweed; experiment: Preemergent control of plant species; assay type: in vivo, Datura stramonium; settings: Datura stramonium, pre-emergence, 336 h; 0.25 lb/acre; read-out: percent preemergent control
How it was run: as §2

[12] = test system: crabgrass; experiment: Postemergent control of plant species; assay type: in vivo, Digitaria spp.; settings: Digitaria sanguinalis, post-emergence, 336 h, read-out: percent postemergent control
How it was run: as §1

[13] = test system: soybean; experiment: Postemergent control of plant species; assay type: in vivo, Glycine max.; settings: Glycine max, post-emergence, 336 h, read-out: percent postemergent control
How it was run: as §1

[14] = test system: rape; experiment: Preemergent control of plant species; assay type: in vivo, Brassica napus; settings: Brassica napus, pre-emergence, 336 h; 0.25 lb/acre; read-out: percent preemergent control
How it was run: as §2

[15] = test system: wild oats; experiment: Postemergent control of plant species; assay type: in vivo, Avena fatua; settings: Avena fatua, post-emergence, 336 h, read-out: percent postemergent control
How it was run: as §1

[16] = test system: yellow nutsedge; experiment: Preemergent control of plant species; assay type: in vivo, Cyperus esculentus; settings: Cyperus, pre-emergence, 336 h; 0.25 lb/acre; read-out: percent preemergent control
How it was run: as §2

[17] = test system: johnson grass; experiment: Preemergent control of plant species; assay type: in vivo, Sorghum halepense; settings: Sorghum halepense, pre-emergence, 336 h; 0.25 lb/acre; read-out: percent preemergent control
How it was run: as §2

[18] = test system: yellow foxtail; experiment: Postemergent control of plant species; assay type: in vivo, Setaria lutescens; settings: Setaria, post-emergence, 336 h, read-out: percent postemergent control
How it was run: as §1

[19] = test system: pigweed; experiment: Postemergent control of plant species; assay type: in vivo, Amaranthus spp.; settings: Amaranthus retroflexus, post-emergence, 336 h, read-out: percent postemergent control
How it was run: as §1

[20] = test system: annual morning glory; experiment: Postemergent control of plant species; assay type: in vivo, Ipomoea spp.; settings: Ipomoea, post-emergence, 336 h, read-out: percent postemergent control
How it was run: as §1

[21] = test system: soybean; experiment: Preemergent control of plant species; assay type: in vivo, Glycine max.; settings: Glycine max, pre-emergence, 336 h; 0.25 lb/acre; read-out: percent preemergent control
How it was run: as §2

[22] = test system: cocklebur; experiment: Postemergent control of plant species; assay type: in vivo, Xanthium spp.; settings: Xanthium strumarium, post-emergence, 336 h, read-out: percent postemergent control
How it was run: as §1

[23] = test system: annual morning glory; experiment: Preemergent control of plant species; assay type: in vivo, Ipomoea spp.; settings: Ipomoea, pre-emergence, 336 h; 0.25 lb/acre; read-out: percent preemergent control
How it was run: as §2

[24] = test system: sorghum; experiment: Preemergent control of plant species; assay type: in vivo, Sorghum vulgare; settings: Sorghum, pre-emergence, 336 h; 0.25 lb/acre; read-out: percent preemergent control
How it was run: as §2

[25] = test system: yellow nutsedge; experiment: Postemergent control of plant species; assay type: in vivo, Cyperus esculentus; settings: Cyperus, post-emergence, 336 h, read-out: percent postemergent control
How it was run: as §1

[26] = test system: velvetleaf; experiment: Preemergent control of plant species; assay type: in vivo, Abutilon theophrasti; settings: Abutilon theophrasti, pre-emergence, 336 h; 0.25 lb/acre; read-out: percent preemergent control
How it was run: as §2

[27] = test system: cotton; experiment: Postemergent control of plant species; assay type: in vivo, Gossypium spp.; settings: Gossypium hirsutum, post-emergence, 336 h, read-out: percent postemergent control
How it was run: as §1

[28] = test system: sugar beet; experiment: Preemergent control of plant species; assay type: in vivo, Beta saccharifera; settings: Beta vulgaris, pre-emergence, 336 h; 0.25 lb/acre; read-out: percent preemergent control
How it was run: as §2

[29] = test system: corn; experiment: Postemergent control of plant species; assay type: in vivo, Zea mays; settings: Zea mays, post-emergence, 336 h, read-out: percent postemergent control
How it was run: as §1

[30] = test system: wheat; experiment: Postemergent control of plant species; assay type: in vivo, Triticum aestivum; settings: Triticum aestivum, post-emergence, 336 h, read-out: percent postemergent control
How it was run: as §1

[31] = test system: jimsonweed; experiment: Postemergent control of plant species; assay type: in vivo, Datura stramonium; settings: Datura stramonium, post-emergence, 336 h, read-out: percent postemergent control
How it was run: as §1

[32] = test system: rape; experiment: Postemergent control of plant species; assay type: in vivo, Brassica napus; settings: Brassica napus, post-emergence, 336 h, read-out: percent postemergent control
How it was run: as §1

[33] = test system: sorghum; experiment: Postemergent control of plant species; assay type: in vivo, Sorghum vulgare; settings: Sorghum, post-emergence, 336 h, read-out: percent postemergent control
How it was run: as §1

[34] = test system: corn; experiment: Preemergent control of plant species; assay type: in vivo, Zea mays; settings: Zea mays, pre-emergence, 336 h; 0.25 lb/acre; read-out: percent preemergent control
How it was run: as §2

[35] = test system: velvetleaf; experiment: Postemergent control of plant species; assay type: in vivo, Abutilon theophrasti; settings: Abutilon theophrasti, post-emergence, 336 h, read-out: percent postemergent control
How it was run: as §1

[36] = test system: nitrification of ammonium nitrogen; experiment: Suppression of nitrification of ammonium nitrogen in soil; settings: 27° C.
How it was run: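 Value is % NH4-N remaining after a two-week, 27° C incubation of treated soil held at 1/3 bar tension moisture. Nitrate was measured with an ion-selective electrode after extraction with ammonium sulfate solution and 10 min shaking.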

Cc1ccn2nc(S(=O)(=O)Nc3c(C)nn(C)c3C(F)(F)F)nc2n1 [Compound 246]
plant injury at 500 ppm [1]: 70% | pest or weed control at 280.212 g/ha [2]: 40% | pest or weed control at 280.212 g/ha [3]: 0% | plant injury at 280.212 g/ha [4]: 20% | plant injury at 500 ppm [5]: 100% | pest or weed control at 500 ppm [6]: 50% | plant injury at 280.212 g/ha [7]: 10% | pest or weed control at 500 ppm [8]: 75% | pest or weed control at 280.212 g/ha [9]: 20% | plant injury at 280.212 g/ha [10]: 80% | pest or weed control at 280.212 g/ha [11]: 0% | pest or weed control at 500 ppm [12]: 75% | plant injury at 500 ppm [13]: 85% | plant injury at 280.212 g/ha [14]: 80% | pest or weed control at 500 ppm [15]: 0% | pest or weed control at 280.212 g/ha [16]: 20% | pest or weed control at 280.212 g/ha [17]: 20% | pest or weed control at 500 ppm [18]: 90% | pest or weed control at 500 ppm [19]: 100% | pest or weed control at 500 ppm [20]: 50% | plant injury at 280.212 g/ha [21]: 90% | pest or weed control at 500 ppm [22]: 90% | pest or weed control at 280.212 g/ha [23]: 0% | plant injury at 280.212 g/ha [24]: 95% | pest or weed control at 500 ppm [25]: 80% | pest or weed control at 280.212 g/ha [26]: 30% | plant injury at 500 ppm [27]: 80% | plant injury at 280.212 g/ha [28]: 90% | plant injury at 500 ppm [29]: 0% | plant injury at 500 ppm [30]: 0% | pest or weed control at 500 ppm [31]: 80% | plant injury at 500 ppm [32]: 70% | plant injury at 500 ppm [33]: 95% | plant injury at 280.212 g/ha [34]: 20% | pest or weed control at 500 ppm [35]: 70%

O=S(=O)(Nc1c(F)cccc1F)c1nc2ncc(Cl)cn2n1 [Compound 117, 6-chloro-N-(2,6-difluorophenyl)-1,2,4-triazolo[1,5-a]pyrimidine-2-sulfonamide]
plant injury at 500 ppm [1]: 0% | plant injury at 500 ppm [5]: 100% | pest or weed control at 500 ppm [6]: 0% | pest or weed control at 500 ppm [8]: 75% | pest or weed control at 500 ppm [12]: 0% | plant injury at 500 ppm [13]: 35% | % NH4-N Remaining After 2 Weeks Incubation ([36]; 0.06 ppm): 32% | % NH4-N Remaining After 2 Weeks Incubation ([36]; 0.25 ppm): 24% | % NH4-N Remaining After 2 Weeks Incubation ([36]; 1 ppm): 41% | % NH4-N Remaining After 2 Weeks Incubation ([36]; 4 ppm): 72% | pest or weed control at 500 ppm [15]: 0% | pest or weed control at 500 ppm [18]: 65% | pest or weed control at 500 ppm [19]: 75% | pest or weed control at 500 ppm [20]: 80% | pest or weed control at 500 ppm [22]: 100% | pest or weed control at 500 ppm [25]: 25% | plant injury at 500 ppm [27]: 90% | plant injury at 500 ppm [29]: 0% | plant injury at 500 ppm [30]: 0% | pest or weed control at 500 ppm [31]: 100% | plant injury at 500 ppm [32]: 100% | plant injury at 500 ppm [33]: 60% | pest or weed control at 500 ppm [35]: 100%
